Assay results reported in patent publication US4656166A, “Antibiotic compounds derived from cephalosporins, process for their production and pharmaceutical compositions” (Sanofi, priority 1983, dated 1987).
Converted amounts (≈) assume the structure as drawn. Like-named read-outs stand apart in the source and are kept apart here.

Assays:
Type in all cases: cell-based
Escherichia coli 255/L.7 = assay: MIC on strain not producing beta-lactamase, Escherichia coli 255/L.7 (Table IV); settings: Escherichia coli 255/L.7 *, not producing beta-lactamases; read-out: MIC
Experimental: (§1) To evaluate the stability of these products towards beta-lactamases, their MIC was determined on isogenic strains producing and not producing beta-lactamases.
(§2) The results are expressed in μg/ml in Table IV.

Escherichia coli SOL 90 = assay: MIC, in vitro dilution method, Escherichia coli SOL 90 (Table III); settings: SOL90
Method in brief: (§3)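 In vitro dilution method, Gram-negative strain panel; read-out = minimum inhibiting concentration, μg/ml.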

Pseudomonas RL 112 = assay: MIC, in vitro dilution method, Pseudomonas RL 112 (Table III); settings: RL112
Method in brief: as §3

[1] = tested on: Proteus vulgaris RL 99 bis; assay: MIC, in vitro dilution method, Proteus vulgaris RL 99 bis (Table III); settings: RL99BIS
Method in brief: as §3

[2] = tested on: Proteus vulgaris GN 76/C.1; assay: MIC on beta-lactamase producing strain Proteus vulgaris GN 76/C.1 (Table IV); settings: GN76
Experimental: as §1, §2

Enterobacter RO 154 = assay: MIC, in vitro dilution method, Enterobacter RO 154 (Table III); settings: RO154
Method in brief: as §3

Serratia RL 72 = assay: MIC, in vitro dilution method, Serratia RL 72 (Table III); settings: RL72
Method in brief: as §3

Citrobacter RL 49 = assay: MIC, in vitro dilution method, Citrobacter RL 49 (Table III); settings: RL49
Method in brief: as §3

Escherichia coli 255 = assay: MIC on beta-lactamase producing strain Escherichia coli 255 (Table IV); settings: Escherichia coli 255, producing beta-lactamases; read-out: MIC
Experimental: as §1, §2

[3] = tested on: Serrtia liquefaciens SL/326 A; assay: MIC on beta-lactamase producing strain Serratia liquefaciens SL/326 A (Table IV)
Experimental: as §1, §2

[4] = tested on: Proteus vulgaris GN 76/C.1/3; assay: MIC on strain not producing beta-lactamase, Proteus vulgaris GN 76/C.1/3 (Table IV); settings: GN76, not producing beta-lactamases
Experimental: as §1, §2

Klebsiella RO 30 = assay: MIC, in vitro dilution method, Klebsiella RO 30 (Table III); settings: RO30
Method in brief: as §3

[5] = tested on: Serrtia liquefaciens SL 1326 S; assay: MIC on strain not producing beta-lactamase, Serratia liquefaciens SL 1326 S (Table IV); settings: SL1326S, not producing beta-lactamases
Experimental: as §1, §2

[6] = Escherichia coli SOL 90, dilution method, read-out: MIC
[7] = Enterobacter RO 154, dilution method, read-out: MIC
[8] = Citrobacter RL 49, dilution method, read-out: MIC
[9] = Klebsiella RO 30, dilution method, read-out: MIC
[10] = Proteus vulgaris GN 76/C.1, producing beta-lactamases, read-out: MIC
[11] = Proteus vulgaris RL 99 bis, dilution method, read-out: MIC

Cc1ccc(CN)c(C)c1C(=O)OCC1=C(C(=O)O)N2C(=O)C(NC(=O)/C(=N\OC(C)(C)C(=O)O)c3csc(N)n3)C2[S+]([O-])C1 (stereo not shown) [42 457]
MIC (Escherichia coli 255/L.7): ≤ 0.0312 µg/mL | MIC (Escherichia coli SOL 90; [6]): 0.5 µg/mL (≈ 0.754 µM) | MIC (Pseudomonas RL 112): 8 µg/mL (≈ 12.1 µM) | MIC ([1]; Proteus vulgaris): ≤ 0.125 µg/mL | MIC ([2]; Proteus vulgaris): ≤ 0.0312 µg/mL | MIC (Enterobacter RO 154; [7]): 0.25 µg/mL (≈ 0.377 µM) | MIC (Serratia RL 72): 0.5 µg/mL (≈ 0.754 µM) | MIC (Citrobacter RL 49; [8]): 0.25 µg/mL (≈ 0.377 µM) | MIC (Escherichia coli 255): 0.125 µg/mL (≈ 0.189 µM) | MIC [3]: 0.0625 µg/mL (≈ 0.0943 µM) | MIC [4]: 0.0625 µg/mL (≈ 0.0943 µM) | MIC (Klebsiella RO 30; [9]): 0.25 µg/mL (≈ 0.377 µM) | MIC [5]: 0.0625 µg/mL (≈ 0.0943 µM)

Cc1c(CN)cccc1C(=O)OCC1=C(C(=O)O)N2C(=O)C(NC(=O)/C(=N\OC(C)(C)C(=O)O)c3csc(N)n3)C2[S+]([O-])C1 (stereo not shown) [42 456]
MIC (Escherichia coli 255/L.7): ≤ 0.0312 µg/mL | MIC (Escherichia coli SOL 90; [6]): 0.25 µg/mL (≈ 0.385 µM) | MIC (Pseudomonas RL 112): 4 µg/mL (≈ 6.17 µM) | MIC ([1]; Proteus vulgaris): ≤ 0.125 µg/mL | MIC ([2]; Proteus vulgaris): ≤ 0.0312 µg/mL | MIC (Enterobacter RO 154; Enterobacter): ≤ 0.125 µg/mL | MIC (Serratia RL 72): 0.5 µg/mL (≈ 0.771 µM) | MIC (Citrobacter RL 49; Citrobacter): ≤ 0.125 µg/mL | MIC (Escherichia coli 255): 0.0625 µg/mL (≈ 0.0964 µM) | MIC [3]: 0.25 µg/mL (≈ 0.385 µM) | MIC [4]: 0.125 µg/mL (≈ 0.193 µM) | MIC (Klebsiella RO 30; Klebsiella): ≤ 0.125 µg/mL | MIC [5]: 0.0625 µg/mL (≈ 0.0964 µM)

CC(C)(O/N=C(\C(=O)NC1C(=O)N2C(C(=O)O)=C(COC(=O)CC3CCNCC3)C[S+]([O-])C12)c1csc(N)n1)C(=O)O (stereo not shown) [42 474]
MIC (Escherichia coli 255/L.7): 0.0625 µg/mL (≈ 0.0997 µM) | MIC (Escherichia coli SOL 90; [6]): 0.25 µg/mL (≈ 0.399 µM) | MIC (Pseudomonas RL 112): 4 µg/mL (≈ 6.38 µM) | MIC ([1]; Proteus vulgaris): ≤ 0.125 µg/mL | MIC ([2]; Proteus vulgaris): 0.0625 µg/mL (≈ 0.0997 µM) | MIC (Enterobacter RO 154; Enterobacter): ≤ 0.125 µg/mL | MIC (Serratia RL 72): 0.25 µg/mL (≈ 0.399 µM) | MIC (Citrobacter RL 49; Citrobacter): ≤ 0.125 µg/mL | MIC (Escherichia coli 255): 0.0625 µg/mL (≈ 0.0997 µM) | MIC [3]: 0.125 µg/mL (≈ 0.199 µM) | MIC [4]: 0.0625 µg/mL (≈ 0.0997 µM) | MIC (Klebsiella RO 30; [9]): 0.25 µg/mL (≈ 0.399 µM) | MIC [5]: ≤ 0.0312 µg/mL

CNCc1ccc(C(=O)OCC2=C(C(=O)O)N3C(=O)C(NC(=O)/C(=N\OC(C)(C)C(=O)O)c4csc(N)n4)C3[S+]([O-])C2)cc1 (stereo not shown) [42 395]
MIC (Escherichia coli 255/L.7): 0.0625 µg/mL (≈ 0.0964 µM) | MIC (Escherichia coli SOL 90; Escherichia coli): ≤ 0.125 µg/mL | MIC (Pseudomonas RL 112): 4 µg/mL (≈ 6.17 µM) | MIC ([1]; Proteus vulgaris): ≤ 0.125 µg/mL | MIC ([2]; Proteus vulgaris): ≤ 0.0312 µg/mL | MIC (Enterobacter RO 154; Enterobacter): ≤ 0.125 µg/mL | MIC (Serratia RL 72): 0.5 µg/mL (≈ 0.771 µM) | MIC (Citrobacter RL 49; Citrobacter): ≤ 0.125 µg/mL | MIC (Escherichia coli 255): 0.0625 µg/mL (≈ 0.0964 µM) | MIC [3]: 0.125 µg/mL (≈ 0.193 µM) | MIC [4]: ≤ 0.0312 µg/mL | MIC (Klebsiella RO 30; Klebsiella): ≤ 0.125 µg/mL | MIC [5]: ≤ 0.0312 µg/mL

CC(C)(ON=C(C(=O)NC1C(=O)N2C(C(=O)O)=C(COC(=O)c3ccc(NC(=O)CCN)cc3)C[S+]([O-])C12)c1csc(N)n1)C(=O)O (stereo not shown) [42 546]
MIC (Escherichia coli 255/L.7): ≤ 0.0312 µg/mL | MIC (Escherichia coli SOL 90; [6]): 0.25 µg/mL (≈ 0.361 µM) | MIC (Pseudomonas RL 112): 4 µg/mL (≈ 5.78 µM) | MIC ([1]; Proteus vulgaris): ≤ 0.125 µg/mL | MIC ([2]; Proteus vulgaris): ≤ 0.0312 µg/mL | MIC (Enterobacter RO 154; [7]): 0.25 µg/mL (≈ 0.361 µM) | MIC (Serratia RL 72): 1 µg/mL (≈ 1.45 µM) | MIC (Citrobacter RL 49; [8]): 0.25 µg/mL (≈ 0.361 µM) | MIC (Escherichia coli 255): 0.0625 µg/mL (≈ 0.0904 µM) | MIC [3]: 0.25 µg/mL (≈ 0.361 µM) | MIC [4]: 0.125 µg/mL (≈ 0.181 µM) | MIC (Klebsiella RO 30; [9]): 0.25 µg/mL (≈ 0.361 µM) | MIC [5]: ≤ 0.0312 µg/mL

CC(C)(ON=C(C(=O)NC1C(=O)N2C(C(=O)O)=C(CSC(=O)c3ccc(NC(=O)CN)cc3)C[S+]([O-])C12)c1csc(N)n1)C(=O)O (stereo not shown) [compound 42664]
MIC (Escherichia coli 255/L.7): 0.0625 µg/mL (≈ 0.0901 µM) | MIC (Escherichia coli SOL 90; [6]): 1 µg/mL (≈ 1.44 µM) | MIC (Pseudomonas RL 112): 8 µg/mL (≈ 11.5 µM) | MIC [2, 10]: 0.125 µg/mL (≈ 0.18 µM) | MIC (Enterobacter RO 154; [7]): 4 µg/mL (≈ 5.77 µM) | MIC (Serratia RL 72): 4 µg/mL (≈ 5.77 µM) | MIC (Escherichia coli 255): 0.25 µg/mL (≈ 0.36 µM) | MIC [3]: 0.25 µg/mL (≈ 0.36 µM) | MIC [4]: 0.25 µg/mL (≈ 0.36 µM) | MIC (Klebsiella RO 30; [9]): 0.5 µg/mL (≈ 0.721 µM) | MIC [5]: 0.0625 µg/mL (≈ 0.0901 µM)

CC(C)(ON=C(C(=O)NC1C(=O)N2C(C(=O)O)=C(CSC(=O)C3CCC(CN)CC3)C[S+]([O-])C12)c1csc(N)n1)C(=O)O (stereo not shown) [compound 42118]
MIC (Escherichia coli 255/L.7): 0.25 µg/mL (≈ 0.381 µM) | MIC (Escherichia coli SOL 90; [6]): 1 µg/mL (≈ 1.52 µM) | MIC (Pseudomonas RL 112): 8 µg/mL (≈ 12.2 µM) | MIC [1, 11]: 0.25 µg/mL (≈ 0.381 µM) | MIC [2, 10]: 0.5 µg/mL (≈ 0.761 µM) | MIC (Enterobacter RO 154; [7]): 16 µg/mL (≈ 24.4 µM) | MIC (Serratia RL 72): 4 µg/mL (≈ 6.09 µM) | MIC (Citrobacter RL 49; [8]): 0.5 µg/mL (≈ 0.761 µM) | MIC (Escherichia coli 255): 0.5 µg/mL (≈ 0.761 µM) | MIC [3]: 0.25 µg/mL (≈ 0.381 µM) | MIC (Klebsiella RO 30; [9]): 0.5 µg/mL (≈ 0.761 µM) | MIC [5]: 0.12 µg/mL (≈ 0.183 µM)

CC(N)CCC(=O)OCC1=C(C(=O)O)N2C(=O)C(NC(=O)C(=NOC(C)(C)C(=O)O)c3csc(N)n3)C2[S+]([O-])C1 (stereo not shown) [42 027]
MIC (Escherichia coli 255/L.7): 0.06 µg/mL (≈ 0.0999 µM) | MIC (Escherichia coli SOL 90; [6]): 0.25 µg/mL (≈ 0.416 µM) | MIC (Pseudomonas RL 112): 4 µg/mL (≈ 6.66 µM) | MIC [1, 11]: ≤ 0.12 µg/mL | MIC [2, 10]: 0.12 µg/mL (≈ 0.2 µM) | MIC (Enterobacter RO 154; [7]): 2 µg/mL (≈ 3.33 µM) | MIC (Serratia RL 72): 0.5 µg/mL (≈ 0.832 µM) | MIC (Citrobacter RL 49; [8]): 0.25 µg/mL (≈ 0.416 µM) | MIC (Escherichia coli 255): 0.12 µg/mL (≈ 0.2 µM) | MIC [3]: 0.25 µg/mL (≈ 0.416 µM) | MIC (Klebsiella RO 30; [9]): 0.25 µg/mL (≈ 0.416 µM) | MIC [5]: ≤ 0.06 µg/mL

CC(N)CC(=O)OCC1=C(C(=O)O)N2C(=O)C(NC(=O)C(=NOC(C)(C)C(=O)O)c3csc(N)n3)C2[S+]([O-])C1 (stereo not shown) [42 024]
MIC (Escherichia coli 255/L.7): ≤ 0.12 µg/mL | MIC (Escherichia coli SOL 90; [6]): 0.5 µg/mL (≈ 0.852 µM) | MIC (Pseudomonas RL 112): 4 µg/mL (≈ 6.82 µM) | MIC [1, 11]: 0.25 µg/mL (≈ 0.426 µM) | MIC [2, 10]: 0.25 µg/mL (≈ 0.426 µM) | MIC (Enterobacter RO 154; [7]): 2 µg/mL (≈ 3.41 µM) | MIC (Serratia RL 72): 0.5 µg/mL (≈ 0.852 µM) | MIC (Citrobacter RL 49; [8]): 0.5 µg/mL (≈ 0.852 µM) | MIC (Escherichia coli 255): 0.25 µg/mL (≈ 0.426 µM) | MIC [3]: 0.25 µg/mL (≈ 0.426 µM) | MIC (Klebsiella RO 30; [9]): 0.25 µg/mL (≈ 0.426 µM) | MIC [5]: 0.06 µg/mL (≈ 0.102 µM)
